Reference: patent US6531509B2, “Stable gabapentin containing more than 20 ppm of chlorine ion” (Teva Pharmaceutical Industries Ltd., priority 2000, dated 2003)

Columns and labels:
[1] = Long-term storage stability of purified gabapentin (lactam formation, HPLC vs. standard); assay type: physicochemical; conditions: purified bulk gabapentin
Source text: Gabapentin purified according to these procedures contains less than 0.5% lactam as measured by HPLC vs. standard.

cardiozole cramp = conditions: in animals; cited from earlier work
[2] = according to Augart; cited from earlier work

Row | SMILES | amount of lactam after storage ([1]; a year of storage at 25° C. and 50% relative humidity) | conversion of gabapentin to its corresponding lactam ([1]; a year of storage at 25° C. and 60% relative humidity) | amount of lactam after storage ([1]; a year of storage at 55° C. and 50% relative humidity) | effect against cardiozole cramp (cardiozole cramp) | toxicity relative to gabapentin [2]
1 | NCC1(CC(=O)O)CCCCC1 [Gabapentin, 1-(aminomethyl)-1-cyclohexaneacetic acid] | less than 0.5 % by weight | ≤ 0.2 % by weight of gabapentin | less than 0.5 % by weight | protective effect against cardiozole cramp | –
2 | O=C1CC2(CCCCC2)CN1 [lactam] | – | – | – | – | higher toxicity than gabapentin
